Measured values from patent US8026219B2, “Antimicrobial linear peptides” (Universitat de Girona, priority 2006, dated 2011).
Residues, ends and D or L forms follow the SMILES beside them. No end group written: not given here. *: point of attachment. Tos = Cc1ccc(S(=O)(=O)*)cc1; Bz = O=C(c1ccccc1)*

How the values were obtained:
[1] = tested on: Erwinia amylovora PMV6076; experiment: Minimum inhibitory concentration (MIC), microbial growth by optical density; assay type: cell-based; conditions: 48 h incubation at 25° C., TSB medium
Description: (§1) Each experiment was performed twice.

[2] = tested on: Pseudomonas syringae EPS94; experiment: as above; assay type: cell-based; conditions: 48 h incubation at 25° C., TSB medium
Description: as §1

[3] = tested on: erythrocytes from fresh human blood; conditions: 5% erythrocytes, 1 h at 37° C., relative to 200 μM melittin; for % Haemolysis 50 μM: 50 μM peptide; for % Haemolysis 150 μM: 150 μM peptide; for % Haemolysis 250 μM: 250 μM peptide
Description: A description of the methodology used to determine the haemolytic activity is found in Oren et al, Biochemistry, 2000, 39, 6103-6114, and in Raguse et al., J. Am. Chem. Soc., 2002, 124, 12774-12785.
The haemolytic activity of the peptides of the invention was evaluated by determining the release of haemoglobin which is produced on placing in contact a solution of the peptides with a suspension of erythrocytes 5% by volume, from fresh human blood.
The blood was collected aseptically using a Vactainer® K2E system (Belliver, Great Britain) with EDTA and it was stored at 4° C. for a period lower than 2 hours.
The blood was centrifuged at 6000 g for 5 minutes to separate the erythrocytes. There were washed three times with TRIS buffer (10 mM TRIS, 150 mM NaCl, pH 7.2) and they were resuspended in TRIS buffer until obtaining a suspension which contained 10% by volume of erythrocytes.
The peptides were solubilized in TRIS buffer until a final concentration of 100, 300 and 500 μM
The replicas were used for each peptide and concentration.
65 μl of 10% erythrocyte suspension was mixed with 65 μl of the peptide solution in each well of a 96-well plate (Micro-Amp®, Applied Biosystems, USA) (5% by volume of erythrocytes) and the mixture was incubated for 1 h at 37° C. under stirring. In this way, the erythrocyte suspensions were subjected to peptide concentrations of 50, 150 and 250 μM.
Next, the plates were centrifuged at 3500 g during 10 minutes and aliquots were transferred of 80 μl of supernatant to microplates with 100 wells (Bioscreen), which were diluted with 80 μl of milli-Q water.
The degree of haemolysis was determined from the absorbance at 540 nm with a Bioscreen plate reader.
The complete positive haemolysis control was determined in a TRIS buffer solution which contained 200 μM melittin (Sigma-Aldrich, Spain)
The percentage of haemolysis (H) was determined using the following equation: H=100×[Op−Ob)/(Om−Ob)]
Where OP as the optical density measured for a determined peptide concentration, Ob was the optical density of the buffer solution, and Om was the optical density for the positive control with melittin.

[4] = tested on: Xanthomonas vesicatori 2133-2; experiment: Minimum inhibitory concentration (MIC), microbial growth by optical density; conditions: 48 h incubation at 25° C., TSB medium
Description: All the bacteria were stored at a temperature of −80° C. in Luria-Bertani (LB) medium supplemented with 20% glycerine in volume/volume.
In all cases they were resuspended in sterile water to obtain a suspension adjusted to an absorbance of 0.2 to 60 nm, which approximately corresponds to 10^8 colony forming units.
To determine the minimum inhibitory concentration (MIC), the peptides were solubilized in milli-Q sterile water until a final concentration of 1000 μM and they were filtered through a 0.22 μm pore size filter.
Dilutions of the peptides of the invention were made to obtained solutions at the concentrations of 750, 500, 250, 200, 150, 125, 100, 75, 50 and 25 μM.
20 μl of each dilution were mixed with 20 μl of the suspension of the corresponding bacterial indicator, and 160 μl of the TSB (Trypticase Soy Broth) liquid medium until a total volume of 200 μl in each well of a microplate.
Two replicas were carried out for each strain, concentration and peptide under study.
The positive controls contained water instead of peptide, and the negative controls contained the peptides without the bacterial suspension.
The microbial growth was determined automatically by optical density at 600 nm using the Microbiology Analyser Bioscreen C (Labsystems)
The microplates were incubated at 25° C. for 48 hours with stirring for 20 seconds before measuring the absorbance every hour. Each experiment was performed twice.

Row | Compound | range of concentrations including the MIC, E. amylovora [1] | range of concentrations including the MIC, P. syringae [2] | % Haemolysis 50 μM [3] | % Haemolysis 150 μM [3] | % Haemolysis 250 μM [3] | range of concentrations including the MIC, X. vesicatoria [4]
1 | CC[C@H](C)[C@H](NC(=O)[C@H](CCCCN)NC(=O)[C@H](CCCCN)NC(=O)[C@H](Cc1ccccc1)NC(=O)[C@H](CC(C)C)NC(=O)[C@H](CCCCN)NC(=O)[C@@H](N)Cc1ccc(O)cc1)C(=O)N[C@@H](CC(C)C)C(=O)N[C@@H](CCCCN)C(=O)N[C@@H](Cc1ccc(O)cc1)C(=O)N[C@@H](CC(C)C)C(N)=O [BP095] | 5 to 7.5 µM | 5 to 7.5 µM | 7% | 50% | 76% | 2.5 to 5 µM
2 | CC[C@H](C)[C@H](NC(=O)[C@H](CCCCN)NC(=O)[C@H](CCCCN)NC(=O)[C@H](Cc1ccccc1)NC(=O)[C@H](CC(C)C)NC(=O)[C@H](CCCCN)NC(=O)[C@H](CCCCN)NS(=O)(=O)c1ccc(C)cc1)C(=O)N[C@@H](CC(C)C)C(=O)N[C@@H](CCCCN)C(=O)N[C@@H](Cc1c[nH]c2ccccc12)C(=O)N[C@@H](CC(C)C)C(N)=O [BP054] (Tos-KKLFKKILKWL-NH2) | >7.5 µM | 5 to 7.5 µM |  |  |  | <2.5 µM
3 | CC[C@H](C)[C@H](NC(=O)[C@H](CCCCN)NC(=O)[C@H](CCCCN)NC(=O)[C@H](Cc1ccccc1)NC(=O)[C@H](CC(C)C)NC(=O)[C@H](CCCCN)NC(=O)[C@H](CCCCN)NC(C)=O)C(=O)N[C@@H](CC(C)C)C(=O)N[C@@H](CCCCN)C(=O)N[C@@H](Cc1ccc(O)cc1)C(=O)N[C@@H](CC(C)C)C(N)=O [BP101] | >7.5 µM | 5 to 7.5 µM | 4% | 31% | 62% | 2.5 µM
4 | Ac-YKLFKKILKKL-NH2 [BP120] | >7.5 µM | 5 to 7.5 µM |  |  |  | 5 to 7.5 µM
5 | CC[C@H](C)[C@H](NC(=O)[C@H](CCCCN)NC(=O)[C@H](CCCCN)NC(=O)[C@H](Cc1ccccc1)NC(=O)[C@H](CC(C)C)NC(=O)[C@H](CCCCN)NC(=O)[C@H](CC(C)C)NS(=O)(=O)c1ccc(C)cc1)C(=O)N[C@@H](CC(C)C)C(=O)N[C@@H](CCCCN)C(=O)N[C@@H](Cc1c[nH]c2ccccc12)C(=O)N[C@@H](CC(C)C)C(N)=O [BP059] (Tos-LKLFKKILKWL-NH2) | >7.5 µM | >7.5 µM |  |  |  | 2.5 µM
6 | CC[C@H](C)[C@H](NC(=O)[C@H](CCCCN)NC(=O)[C@H](CCCCN)NC(=O)[C@H](Cc1ccccc1)NC(=O)[C@H](CC(C)C)NC(=O)[C@H](CCCCN)NC(=O)[C@H](CCCCN)NS(=O)(=O)c1ccc(C)cc1)C(=O)N[C@@H](CC(C)C)C(=O)N[C@@H](CCCCN)C(=O)N[C@@H](Cc1ccc(O)cc1)C(=O)N[C@@H](CC(C)C)C(N)=O [BP102] | 5 to 7.5 µM | 2.5 to 5 µM | 39% | 79% | 80% | <2.5 µM
7 | CC[C@H](C)[C@H](NC(=O)[C@H](CCCCN)NC(=O)[C@H](CCCCN)NC(=O)[C@H](Cc1ccccc1)NC(=O)[C@H](CC(C)C)NC(=O)[C@H](CCCCN)NC(=O)[C@H](CCCCN)NS(=O)(=O)c1ccc(C)cc1)C(=O)N[C@@H](CC(C)C)C(=O)N[C@@H](CCCCN)C(=O)N[C@H](C(=O)N[C@@H](CC(C)C)C(N)=O)C(C)C [BP030] | 5 to 7.5 µM | 5 to 7.5 µM | 25% | 70% | 80% | 5 to 7.5 µM
8 | CC[C@H](C)[C@H](NC(=O)[C@H](CCCCN)NC(=O)[C@H](CCCCN)NC(=O)[C@H](Cc1ccccc1)NC(=O)[C@H](CC(C)C)NC(=O)[C@H](CCCCN)NC(=O)[C@H](CCCCN)NC(C)=O)C(=O)N[C@@H](CC(C)C)C(=O)N[C@@H](CCCCN)C(=O)N[C@@H](Cc1c[nH]c2ccccc12)C(=O)N[C@@H](CC(C)C)C(N)=O [BP053] | >7.5 µM | 5 to 7.5 µM | 60% | 82% | 85% | 2.5 to 5 µM
9 | CC[C@H](C)[C@H](NC(=O)[C@H](CCCCN)NC(=O)[C@H](CCCCN)NC(=O)[C@H](Cc1ccccc1)NC(=O)[C@H](CC(C)C)NC(=O)[C@H](CCCCN)NC(=O)[C@@H](N)CCCCN)C(=O)N[C@@H](CC(C)C)C(=O)N[C@@H](CCCCN)C(=O)N[C@@H](Cc1c[nH]c2ccccc12)C(=O)N[C@@H](CC(C)C)C(N)=O [BP052] | 2.5 to 5 µM | 5 µM | 51% | 84% | 79% | 2.5 to 5 µM
10 | CC[C@H](C)[C@H](NC(=O)[C@H](CCCCN)NC(=O)[C@H](CCCCN)NC(=O)[C@H](Cc1ccccc1)NC(=O)[C@H](CC(C)C)NC(=O)[C@H](CCCCN)NC(=O)[C@H](Cc1ccc(O)cc1)NC(=O)c1ccccc1)C(=O)N[C@@H](CC(C)C)C(=O)N[C@@H](CCCCN)C(=O)N[C@@H](CCCCN)C(=O)N[C@@H](CC(C)C)C(N)=O [BP122] (Bz-YKLFKKILKKL-NH2) | >7.5 µM | 5 to 7.5 µM | 32% | 78% | 96% | 2.5 to 5 µM
11 | CC[C@H](C)[C@H](NC(=O)[C@H](CCCCN)NC(=O)[C@H](CCCCN)NC(=O)[C@H](Cc1ccccc1)NC(=O)[C@H](CC(C)C)NC(=O)[C@H](CCCCN)NC(=O)[C@@H](N)CCCCN)C(=O)N[C@@H](CC(C)C)C(=O)N[C@@H](CCCCN)C(=O)N[C@@H](Cc1c[nH]c2ccccc12)C(=O)N[C@@H](CC(C)C)C(N)=O [BP017] | >7.5 µM | 5 to 7.5 µM |  |  |  | 5 to 7.5 µM
12 | CC[C@H](C)[C@H](NC(=O)[C@H](CCCCN)NC(=O)[C@H](CCCCN)NC(=O)[C@H](Cc1ccccc1)NC(=O)[C@H](CC(C)C)NC(=O)[C@H](CCCCN)NC(=O)[C@H](CCCCN)NC(=O)c1ccccc1)C(=O)N[C@@H](CC(C)C)C(=O)N[C@@H](CCCCN)C(=O)N[C@@H](Cc1c[nH]c2ccccc12)C(=O)N[C@@H](CC(C)C)C(N)=O [BP055] (Bz-KKLFKKILKWL-NH2) | >7.5 µM | >7.5 µM |  |  |  | <2.5 µM
13 | YKLFKKILKKL-NH2 [BP119] |  |  | 4% | 19% | 45% | 
14 | LKLFKKILKKL-NH2 [BP128] |  |  | 2% | 31% | 66% | 
15 | CC[C@H](C)[C@H](NC(=O)[C@H](CCCCN)NC(=O)[C@H](CCCCN)NC(=O)[C@H](Cc1ccccc1)NC(=O)[C@H](CC(C)C)NC(=O)[C@H](CCCCN)NC(=O)[C@H](Cc1ccc(O)cc1)NC(C)=O)C(=O)N[C@@H](CC(C)C)C(=O)N[C@@H](CCCCN)C(=O)N[C@@H](Cc1ccc(O)cc1)C(=O)N[C@@H](CC(C)C)C(N)=O [BP096] |  |  | 47% | 86% | 85% | 
16 | CC[C@H](C)[C@H](NC(=O)[C@H](CCCCN)NC(=O)[C@H](CCCCN)NC(=O)[C@H](Cc1ccccc1)NC(=O)[C@H](CC(C)C)NC(=O)[C@H](CCCCN)NC(=O)[C@H](CCCCN)NC(C)=O)C(=O)N[C@@H](CC(C)C)C(=O)N[C@@H](CCCCN)C(=O)N[C@@H](CCCCN)C(=O)N[C@@H](CC(C)C)C(N)=O [BP124] |  |  | 1% | 5% | 23% | 
17 | Ac-KKLFKKILKVL-NH2 [BP029] | 5 to 7.5 µM | 5 to 7.5 µM |  |  |  | 7.5 µM
